The values below come from US7057052B2, “Heterocyclic quinones as pharmaceutical agents” (Duke University, priority 2002, dated 2006).

Where two headings read alike, the source gives them in different places.

Common to all, as to type: biochemical
Assay [1] has as its target T1, Cdc25B (Homo sapiens, UniProt P30305).
T1 sequence (P30305 1-580): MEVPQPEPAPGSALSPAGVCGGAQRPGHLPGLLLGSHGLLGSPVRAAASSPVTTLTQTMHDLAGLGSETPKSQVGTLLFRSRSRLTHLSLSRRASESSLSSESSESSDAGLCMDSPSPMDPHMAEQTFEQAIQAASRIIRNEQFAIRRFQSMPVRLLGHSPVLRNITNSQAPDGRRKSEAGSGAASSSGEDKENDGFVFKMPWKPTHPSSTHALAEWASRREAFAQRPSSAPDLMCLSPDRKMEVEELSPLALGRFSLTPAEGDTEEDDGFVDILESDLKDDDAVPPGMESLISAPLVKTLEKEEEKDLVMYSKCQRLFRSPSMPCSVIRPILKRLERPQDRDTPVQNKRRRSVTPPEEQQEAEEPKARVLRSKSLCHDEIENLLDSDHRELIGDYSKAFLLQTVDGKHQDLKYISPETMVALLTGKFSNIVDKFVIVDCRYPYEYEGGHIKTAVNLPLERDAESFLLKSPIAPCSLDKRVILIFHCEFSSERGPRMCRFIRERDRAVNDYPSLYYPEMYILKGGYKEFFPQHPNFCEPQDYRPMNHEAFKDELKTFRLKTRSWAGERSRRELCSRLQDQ
In words: Cdc25B phosphatase inhibition (50 μM screen, 3 pt. and 8 pt. IC-50). The conditions noted are these: for IC50: Cdc25B; for inhibition at 50 µM: read-out: Percent Inhibition at 50 uM compound, Cdc25 B. The protocol: (§1) Using procedures known to those skilled in the art, the compounds listed in Table 3 were screened against Cdc25A, Cdc25B, and Cdc25C at 50 μM. […] To analyze these effects further, the compounds were then screened against Cdc25B in a 3 pt. IC-50, using 1, 7 and 50 μM. Several of the compounds were also screened with an 8 pt. IC-50 process, using 0.1–10 μM, allowing determination of Hill slopes.

The target in assay [2] is T2, Cdc25C (Homo sapiens, UniProt P30307).
T2 sequence (P30307 1-473): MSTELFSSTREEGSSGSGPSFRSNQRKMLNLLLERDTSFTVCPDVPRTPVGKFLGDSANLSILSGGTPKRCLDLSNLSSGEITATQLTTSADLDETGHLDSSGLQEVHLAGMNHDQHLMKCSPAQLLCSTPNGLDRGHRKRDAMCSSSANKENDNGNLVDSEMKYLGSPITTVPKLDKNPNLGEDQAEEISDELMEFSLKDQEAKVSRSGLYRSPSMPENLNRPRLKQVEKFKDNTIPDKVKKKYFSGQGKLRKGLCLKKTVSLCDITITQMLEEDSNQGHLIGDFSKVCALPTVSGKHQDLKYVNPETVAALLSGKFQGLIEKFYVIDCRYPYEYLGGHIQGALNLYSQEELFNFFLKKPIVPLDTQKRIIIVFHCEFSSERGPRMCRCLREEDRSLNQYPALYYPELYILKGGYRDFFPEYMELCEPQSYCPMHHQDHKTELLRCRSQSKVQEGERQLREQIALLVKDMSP
In words: Cdc25C phosphatase inhibition screen at 50 μM. The conditions noted are these: for inhibition at 50 µM: read-out: Percent Inhibition at 50 uM compound, Cdc25 C. The protocol: as §1

The target in assay [3] is T3, Cdc25A (Homo sapiens, UniProt P30304).
T3 sequence (P30304 1-524): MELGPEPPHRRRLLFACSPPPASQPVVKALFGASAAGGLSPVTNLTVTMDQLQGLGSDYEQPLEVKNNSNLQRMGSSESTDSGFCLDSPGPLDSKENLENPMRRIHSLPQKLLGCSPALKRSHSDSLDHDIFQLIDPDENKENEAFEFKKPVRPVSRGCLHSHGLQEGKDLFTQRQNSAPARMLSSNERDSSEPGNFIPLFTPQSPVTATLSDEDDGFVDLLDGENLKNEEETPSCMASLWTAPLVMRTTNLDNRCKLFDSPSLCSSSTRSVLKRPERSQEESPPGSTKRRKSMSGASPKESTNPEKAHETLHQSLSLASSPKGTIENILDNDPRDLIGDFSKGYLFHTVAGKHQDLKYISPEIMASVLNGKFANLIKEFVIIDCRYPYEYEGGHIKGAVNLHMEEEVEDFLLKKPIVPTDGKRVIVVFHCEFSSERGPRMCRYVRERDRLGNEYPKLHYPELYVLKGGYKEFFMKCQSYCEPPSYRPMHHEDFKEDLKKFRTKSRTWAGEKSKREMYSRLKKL
In words: Cdc25A phosphatase inhibition screen at 50 μM. Conditions: for inhibition at 50 µM: read-out: Percent Inhibition at 50 uM compound, Cdc25 A. As to the method: as §1

[4] abbreviates: 3 pt. IC-50 using 1, 7 and 50 μM, read-out: IC50 (3 pt).

Regarding `CC(C)c1[nH]c2ccccc2c1C1=C(O)C(=O)C=C(O)C1=O` [2F, 2,5-dihydroxy-3-(2-isopropyl-1H-indol-3-yl)-[1,4]-benzoquinone], the IC50 in assay [1] (setting [4]) is 8.3 µM. Besides, the inhibition at 50 µM in assay [1] turned out to be 13%; in assay [2], 0%; in assay [3], 58%.
For the compound `COc1cc2[nH]cc(C3=C(O)C(=O)C=C(O)C3=O)c2cc1OC` [8A, 2,5-dihydroxy-3-(5,6-dimethoxy-1H-indol-3-yl)-[1,4]-benzoquinone], the IC50 in assay [1] (setting [4]) was determined as 117 µM. Moreover, the figures for the inhibition at 50 µM in assay [1], in assay [2] and in assay [3] were 19%, 20% and 39%, respectively.
On the same counts, the results for `O=C1C=C(O)C(=O)C(c2c[nH]c3ccc(F)cc23)=C1O` [4B, 2,5-dihydroxy-3-(5-fluoro-1H-indol-3-yl)-[1,4]-benzoquinone] are 11.7 µM, 32%, 23% and 64%.
With `Cc1cccc2c(C3=C(O)C(=O)c4cccc(O)c4C3=O)c[nH]c12` [4E, 2,5-dihydoxy-3-(7-methyl-1H-indol-3-yl)-[1,4]naphthoquinone], in assay [1] (50 uM compound), the “Percent Inhibition at 50 uM compound, Cdc25 B” value is 0%. For the same compound, the IC50 in assay [1] (setting [4]) is 69.3 µM. In addition, the “Percent Inhibition at 50 uM compound, Cdc25 C” value in assay [2] (50 uM compound) was determined as 0%. For the same compound, in assay [3] (50 uM compound), the “Percent Inhibition at 50 uM compound, Cdc25 A” value worked out at 10%.
As for `CC(C)(C)c1cccc2c(C3=C(O)C(=O)C=C(O)C3=O)c[nH]c12` [6G, 2,5-dihydroxy-3-(7-tert-butyl-1H-indol-3-yl)-[1,4]-benzoquinone], the IC50 in assay [1] (setting [4]) worked out at 2.1 µM. The figures for the inhibition at 50 µM in assay [1], in assay [2] and in assay [3] were 33%, 37% and 96%, respectively.
`O=C1C=C(O)C(=O)C(c2c[nH]c3cccc(Cl)c23)=C1O` [3E, 2,5-dihydroxy-3-(4-chloro-1H-indol-3-yl)-[1,4]-benzoquinone]: the IC50 is 3 µM in assay [1] (setting [4]) and 8.4 µM in assay [1] (8 pt. IC-50 using 0.1–10 μM, read-out: IC50 (8 pt)). The inhibition at 50 µM came to 21% in assay [1], 0% in assay [2] and 67% in assay [3].
Turning to `Cc1ccc2c(C3=C(O)C(=O)C=C(O)C3=O)c(C)[nH]c2c1` [7F, 2,5-dihydroxy-3-(2,6-dimethyl-1H-indol-3-yl)-[1,4]-benzoquinone], in assay [1] (setting [4]), the IC50 turned out to be 207 µM. Moreover, the inhibition at 50 µM was 16% in assay [1], 0% in assay [2] and 46% in assay [3].
On the same counts, the results for `Cc1ccc2c(C3=C(O)C(=O)C=C(O)C3=O)c[nH]c2c1` [5D, 2,5-dihydroxy-3-(6-methyl-1H-indol-3-yl)-[1,4]-benzoquinone] are 32.3 µM, 16%, 28% and 80%.
`CC(C)(C)c1[nH]c2ccccc2c1C1=C(O)C(=O)C=C(O)C1=O` [2H, 2,5-dihydroxy-3-(2-tert-butyl-1H-indol-3-yl)-[1,4]-benzoquinone]: in assay [1] (setting [4]), the IC50 worked out at 13.9 µM. The inhibition at 50 µM is 11% in assay [1], 0% in assay [2] and 31% in assay [3].
The like results for `Cc1[nH]c2ccc(Cl)cc2c1C1=C(O)C(=O)C=C(O)C1=O` [7E, 2,5-dihydroxy-3-(2-methyl-5-chloro-1H-indol-3-yl)-[1,4]-benzoquinone] were, in that order, 52.2 µM, 60%, 81% and 91%.
On the same counts, the results for `COc1ccc2[nH]cc(C3=C(O)C(=O)C=C(O)C3=O)c2c1` [4F, 2,5-dihydroxy-3-(5-methoxy-1H-indol-3-yl)-[1,4]-benzoquinone] are 6 µM, 0%, 0% and 15%.
